# Laboratory results published in ChEMBL document CHEMBL1133556, “Carbonic anhydrase inhibitors: water-soluble 4-sulfamoylphenylthioureas as topical intraocular pressure-lowering agents with long-lasting effects” (J Med Chem, 2000).
# Residues, ends and D or L forms follow the SMILES beside them. *: point of attachment. X1 = NS(=O)(=O)c1ccc(NC(=S)*)cc1
# Key:
# [1] = octanol/water
# Description: Partition coefficient (logD) (chloroform/buffer)
# [2] = species: Oryctolagus cuniculus
# Description: Tested in vitro for transcorneal accession rates (corneal permeability) against cornea with no epithelium
# [3] = species: Oryctolagus cuniculus; remark: listed apart in the source
# Description: Tested in vitro for transcorneal accession rates (corneal permeability) against intact cornea
# [4] = physchem; details: buffer, pH 7.4
# Description: (§1) Solubility (in uM) in pH 7.40 at 25 degree C
# [5] = target: T1, Carbonic anhydrase 4 (Bos taurus, UniProt Q95323)
# T1 sequence (Q95323 whole entry): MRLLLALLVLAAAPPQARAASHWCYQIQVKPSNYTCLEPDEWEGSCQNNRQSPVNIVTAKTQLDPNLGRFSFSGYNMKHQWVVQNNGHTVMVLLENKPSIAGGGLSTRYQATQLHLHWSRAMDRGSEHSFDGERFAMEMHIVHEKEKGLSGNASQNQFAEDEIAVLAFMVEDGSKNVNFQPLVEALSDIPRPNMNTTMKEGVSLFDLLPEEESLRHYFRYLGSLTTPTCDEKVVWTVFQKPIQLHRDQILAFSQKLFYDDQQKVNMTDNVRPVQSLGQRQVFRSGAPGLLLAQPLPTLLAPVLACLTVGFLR
# Description: Inhibitory activity against bovine carbonic anhydrase IV from lung microsomes
# [6] = target: Carbonic anhydrase 2 (Homo sapiens, UniProt P00918)
# Description: Inhibitory activity against human recombinant carbonic anhydrase II
# [7] = target: Carbonic anhydrase 1 (Homo sapiens, UniProt P00915)
# Sequence of Carbonic anhydrase 1 (P00915 whole entry): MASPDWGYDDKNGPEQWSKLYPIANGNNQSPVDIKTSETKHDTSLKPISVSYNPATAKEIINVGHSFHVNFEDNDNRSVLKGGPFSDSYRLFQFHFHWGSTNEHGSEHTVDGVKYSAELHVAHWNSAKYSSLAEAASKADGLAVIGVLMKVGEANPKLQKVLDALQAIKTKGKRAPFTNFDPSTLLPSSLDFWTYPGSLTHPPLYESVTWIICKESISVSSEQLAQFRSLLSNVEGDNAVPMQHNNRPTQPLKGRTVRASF
# Description: Inhibitory activity against human recombinant carbonic anhydrase I
# [8] = species: Oryctolagus cuniculus; remark: listed apart in the source
# Description: Tested in vivo for lowering IOP (Intraocular Pressure)in Normotensive Rabbits at pH 7.0 after treatment with 50 uL, activity at 90 minutes
# [9] = species: Oryctolagus cuniculus; remark: listed apart in the source
# Description: Tested in vivo for lowering IOP (Intraocular Pressure)in Normotensive Rabbits at pH 7.0 after treatment with 50 uL, activity at 30 minutes
# [10] = species: Oryctolagus cuniculus; remark: listed apart in the source
# [11] = physchem; details: buffer, pH 7.4; remark: listed apart in the source
# Description: as §1
# [12] = tested on: Oryctolagus cuniculus; assay: Tested in vivo for lowering IOP (Intraocular Pressure)in Normotensive Rabbits at pH 7.0 after treatment with 50 uL, activity at 60 minutes; format: functional
Structure (SMILES),logD [1],kin [2],kin [3],solubility [4],Ki [5],Ki [6],Ki [7],Delta IOP [8],Delta IOP [9],Delta IOP [10],solubility [11],Delta IOP [12]
NS(=O)(=O)c1nnc(NS(=O)(=O)c2ccccc2)s1 [BENZOLAMIDE],0.00001,40 h⁻¹,10 h⁻¹,1.2 mM,,,,,,,,
CC(=O)/N=c1/sc(S(N)(=O)=O)nn1C [METHAZOLAMIDE],0.06,13000 h⁻¹,1900 h⁻¹,,,,,,,,,
NS(=O)(=O)c1ccc(N/C(S)=N/C(Cc2ccccc2)C(=O)O)cc1 (stereo unspecified),,,,,13 nM,6 nM,30 nM,3 mmHg,4 mmHg,4.1 mmHg,,
NS(=O)(=O)c1ccc(N/C(S)=N\c2cccc(C(=O)O)c2)cc1,,,,,36 nM,18 nM,50 nM,,,,,
CC(/N=C(/S)Nc1ccc(S(N)(=O)=O)cc1)C(=O)O (stereo unspecified),,,,,36 nM,12 nM,54 nM,5.2 mmHg,4 mmHg,5 mmHg,,
NS(=O)(=O)c1ccc(N/C(S)=N\CCc2ccccc2)cc1,,,,,75 nM,42 nM,125 nM,,,,,
NS(=O)(=O)c1ccc(N/C(S)=N/C(C(=O)O)c2ccccc2)cc1 (stereo unspecified),3.652,14300 h⁻¹,5900 h⁻¹,,15 nM,6 nM,40 nM,,,,54 mM,
NS(=O)(=O)c1ccc(N/C(S)=N/C(Cc2ccc(O)c(O)c2)C(=O)O)cc1 (stereo unspecified),,,,,18 nM,7 nM,35 nM,,,,,
CC(C)CC(/N=C(\S)Nc1ccc(S(N)(=O)=O)cc1)C(=O)O (stereo unspecified),,,,,12 nM,5 nM,21 nM,6 mmHg,5.2 mmHg,,,6.3 mmHg
NS(=O)(=O)c1ccc(NC(=S)NC(CC(=O)O)C(=O)NC(CC(=O)O)C(=O)O)cc1 (stereo unspecified),,,,,32 nM,15 nM,50 nM,,,,,
NS(=O)(=O)c1ccc(NC(S)=NC(Cc2c[nH]cn2)C(=O)NC(Cc2ccccc2)C(=O)O)cc1 (stereo unspecified),,,,,9 nM,3 nM,21 nM,,,,,
NS(=O)(=O)c1ccc(NC(=S)NC(CCC(=O)O)C(=O)O)cc1 (stereo unspecified),,,,,19 nM,10 nM,38 nM,,,,,
N=C(N)NCCCC(/N=C(\S)Nc1ccc(S(N)(=O)=O)cc1)C(=O)O (stereo unspecified),,,,,61 nM,15 nM,115 nM,4 mmHg,1 mmHg,1.2 mmHg,,
NS(=O)(=O)c1ccc(NC(=S)N[C@@H](CC(=O)O)C(=O)N[C@@H](CC(=O)O)C(=O)N[C@@H](CC(=O)O)C(=O)N[C@@H](CC(=O)O)C(=O)O)cc1 (X1-DDDD-OH),,,,,27 nM,10 nM,59 nM,,,,,
CCOc1ccc2nc(S(N)(=O)=O)sc2c1 [ETHOXZOLAMIDE],,,,0.04 mM,,,,,,,,
NS(=O)(=O)c1ccc(NC(=S)NC(CC(=O)O)C(=O)O)cc1 (stereo unspecified),0.05,800 h⁻¹,100 h⁻¹,,17 nM,8 nM,35 nM,2 mmHg,2 mmHg,2.6 mmHg,60 mM,
NS(=O)(=O)c1ccc(N/C(S)=N/C(Cc2ccc(O)cc2)C(=O)O)cc1 (stereo unspecified),,,,,13 nM,5 nM,26 nM,,,,,
NS(=O)(=O)c1ccc(NC(=S)NCC(=O)NCC(=O)O)cc1,,,,,32 nM,15 nM,54 nM,,,,,
CC(C)C(/N=C(\S)Nc1ccc(S(N)(=O)=O)cc1)C(=O)O (stereo unspecified),,,,,13 nM,5 nM,23 nM,,,,,

Structure (SMILES),logD [1],kin [2],kin [3],solubility [4],Ki [5],Ki [6],Ki [7],Delta IOP [8],Delta IOP [9],Delta IOP [10],solubility [11],Delta IOP [12]
NS(=O)(=O)c1ccc(N/C(S)=N\CCC(=O)O)cc1,,,,,35 nM,11 nM,47 nM,,,,,
NS(=O)(=O)c1ccc(N/C(S)=N/CCC(=O)NC(Cc2c[nH]cn2)C(=O)O)cc1 (stereo unspecified),0.725,5000 h⁻¹,2200 h⁻¹,52 mM,10 nM,3 nM,23 nM,4 mmHg,1 mmHg,1.2 mmHg,,
NS(=O)(=O)c1ccc(N/C(S)=N\c2ccc(C(=O)O)cc2)cc1,,,,,40 nM,16 nM,59 nM,,,,,
NS(=O)(=O)c1ccc(N/C(S)=N/C(C(=O)O)C(O)c2ccccc2)cc1 (stereo unspecified),2.314,12300 h⁻¹,4900 h⁻¹,48 mM,9 nM,2 nM,24 nM,9.6 mmHg,9 mmHg,10 mmHg,,
NS(=O)(=O)c1ccc(N/C(S)=N/C(CS)C(=O)O)cc1 (stereo unspecified),0.09,700 h⁻¹,300 h⁻¹,,10 nM,5 nM,25 nM,0 mmHg,0 mmHg,0 mmHg,65 mM,
NS(=O)(=O)c1ccc(N/C(S)=N\CC(=O)O)cc1,,,,,39 nM,20 nM,62 nM,0.5 mmHg,3 mmHg,5.9 mmHg,,
NS(=O)(=O)c1ccc(NC(=S)N2CCC[C@H]2C(=O)NCC(=O)NCC(=O)O)cc1,,,,,11 nM,3 nM,20 nM,,,,,
CC(C)CC(/N=C(\S)Nc1ccc(S(N)(=O)=O)cc1)C(=O)NCC(=O)O (stereo unspecified),,,,,13 nM,5 nM,20 nM,,,,,
NS(=O)(=O)c1ccc(NC(=S)N2CCCC2C(=O)O)cc1 (stereo unspecified),,,,,68 nM,25 nM,110 nM,1 mmHg,0 mmHg,1 mmHg,,
NS(=O)(=O)c1ccc(N=C=S)cc1,,,,,,185 nM,5000 nM,,,,,
NS(=O)(=O)c1ccc(NC(=S)NC(Cc2cnc[nH]2)C(=O)NCC(=O)O)cc1 (stereo unspecified),,,,,6 nM,1 nM,13 nM,,,,,
CC(/N=C(/S)Nc1ccc(S(N)(=O)=O)cc1)C(=O)NC(Cc1ccccc1)C(=O)O (stereo unspecified),,,,,13 nM,4 nM,23 nM,3 mmHg,0.2 mmHg,0.2 mmHg,,
CCC(C)C(/N=C(\S)Nc1ccc(S(N)(=O)=O)cc1)C(=O)O (stereo unspecified),,,,,10 nM,4 nM,22 nM,0.3 mmHg,2 mmHg,4 mmHg,,
NS(=O)(=O)c1ccc(N/C(S)=N/C(Cc2c[nH]cn2)C(=O)O)cc1 (stereo unspecified),,,,,15 nM,5 nM,32 nM,4 mmHg,4 mmHg,,,4.6 mmHg
CC(O)C(NC(=S)Nc1ccc(S(N)(=O)=O)cc1)C(=O)O (stereo unspecified),,,,,16 nM,4 nM,30 nM,,,,,
NS(=O)(=O)c1ccc(N/C(S)=N\CCc2ccccn2)cc1,,,,,77 nM,40 nM,124 nM,,,,,
CSCCC(/N=C(\S)Nc1ccc(S(N)(=O)=O)cc1)C(=O)O (stereo unspecified),,,,,13 nM,4 nM,27 nM,,,,,
NC(=O)CCC(NC(=S)Nc1ccc(S(N)(=O)=O)cc1)C(=O)O (stereo unspecified),,,,,23 nM,9 nM,40 nM,,,,,
NS(=O)(=O)c1ccc(N/C(S)=N/C(Cc2c[nH]c3ccccc23)C(=O)O)cc1 (stereo unspecified),,,,,24 nM,11 nM,47 nM,,,,,
